The record followed here is ChEMBL document CHEMBL1201862, “PubChem BioAssay data set” (2004).

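In this assay, cells in 96-well plates receive the compound at five concentrations for 48 hours. Endpoints are linearly interpolated between the surrounding concentrations. Abbreviation: GI50, concentration required for 50% inhibition of growth.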 The source made the active and inactive calls. Rule as the data show it: active = GI50 up to about 1.1 µM and inactive = higher. Some results are limits rather than exact numbers.

Test systems include A498; BT-549; COLO 205; HT-29; IGROV-1; KM12; MDA-MB-231; NCI-H23; OVCAR-8; RPMI-8226; SF-268; SF-539; SK-MEL-28; SK-MEL-2; SK-MEL-5; SNB-75; SR; TK-10; LOX IMVI.
Assay in all cases: NCI tumour cell line growth inhibition, 48 h

Consider `Cc1cc2c3c(nc4ccccc42)C(=O)c2ccccc2-c3n1`, for which the GI50 with A498 was 16.9 µM (inactive); with BT-549, 16.9 µM (inactive); in the test with COLO 205, 16.8 µM (inactive); in the test with HT-29, 21.7 µM (inactive); with IGROV-1, 2.98 µM (inactive); in the test with KM12 it was 1.02 µM (active). For the same molecule, the GI50 with MDA-MB-231 was 18 µM (inactive); with NCI-H23 it was 2.4 µM (inactive); with OVCAR-8, 5.52 µM (inactive); in the test on RPMI-8226 it was 3.14 µM (inactive); in the test on SF-268, 30.6 µM (inactive); in the test with SF-539, 19.3 µM (inactive). Further, the GI50 in the test with SK-MEL-28 was 14.6 µM (inactive); in the test on SK-MEL-2 it was 17.9 µM (inactive); with SK-MEL-5, 0.569 µM (active); with SNB-75 it was 4.37 µM (inactive); with SR, 1.79 µM (inactive); in the test on TK-10, 34.8 µM (inactive).
On to `C=C(C)[C@H]1C=C[C@@H](OC(C)=O)[C@@]2(COC(C)=O)[C@H](OC(=O)CCC)[C@H]3[C@@H](OC(C)=O)[C@@H](C)C[C@]3(O)C(=O)[C@@](C)(OC(C)=O)[C@H]12`, for which the GI50 in the test with A498 is 67 µM (inactive); in the test with BT-549, 58.2 µM (inactive); in the test with COLO 205 it was 22 µM (inactive); in the test with HT-29, 38.7 µM (inactive); in the test with IGROV-1, 32.1 µM (inactive); with KM12 it was 39.9 µM (inactive). Also, the GI50 in the test on LOX IMVI was 29.5 µM (inactive); in the test with MDA-MB-231 it was 56.9 µM (inactive); with NCI-H23 it was 39.3 µM (inactive); in the test with OVCAR-8 it was 29.7 µM (inactive); with RPMI-8226, 30.3 µM (inactive); with SF-268 it was 67 µM (inactive). In addition, the GI50 in the test on SK-MEL-28 is 80 µM (inactive); with SK-MEL-2, 87.3 µM (inactive); in the test on SK-MEL-5, 34.7 µM (inactive); in the test with SNB-75, 46 µM (inactive); in the test on SR, 36.3 µM (inactive); in the test on TK-10 it was 32.2 µM (inactive).
Regarding `Cc1nc(O)nc(N/N=C/c2c3ccccc3c(Cl)c3ccccc23)c1C(=O)Nc1ccc(Cl)cc1`, the GI50 in the test with A498 is 47.5 µM (inactive); in the test on BT-549 it was > 100 µM (inactive); with HT-29, 55.7 µM (inactive); with IGROV-1 it was 71.1 µM (inactive); with LOX IMVI, 38.9 µM (inactive); with MDA-MB-231, > 100 µM (inactive). Moreover, the GI50 in the test on NCI-H23 was > 100 µM (inactive); in the test on OVCAR-8 it was 68.9 µM (inactive); with RPMI-8226 it was > 100 µM (inactive); in the test with SF-268 it was > 100 µM (inactive); with SK-MEL-28 it was > 100 µM (inactive); in the test on SK-MEL-2, > 100 µM (inactive). Besides, the GI50 was 41.8 µM (inactive) with SK-MEL-5, > 100 µM (inactive) in the test on SNB-75, 38.5 µM (inactive) in the test with SR and 47.6 µM (inactive) in the test on TK-10.
Consider `C=CCN(c1cc(OCc2ccccc2)c2c(c1)c(C)cn2S(=O)(=O)c1ccccc1)S(C)(=O)=O`, for which the GI50 in the test on BT-549, in the test with COLO 205, with HT-29, in the test with IGROV-1, in the test on KM12 and in the test with LOX IMVI was > 100 µM (inactive) throughout. Also, the GI50 with MDA-MB-231, in the test on NCI-H23, with OVCAR-8, in the test with RPMI-8226, in the test on SF-268 and with SF-539 was > 100 µM (inactive) in each case. Also, the GI50 in the test on SK-MEL-28, in the test on SK-MEL-2, with SK-MEL-5, in the test on SNB-75, in the test on SR and in the test with TK-10 was > 100 µM (inactive) each time.
As to `CCn1ncc2c(=O)n3ncn(-c4ccc(Br)cc4)c3nc21`, the GI50 with A498, in the test with BT-549, with COLO 205, in the test with HT-29, in the test with IGROV-1 and in the test on KM12 was > 100 µM (inactive) throughout. Moreover, the GI50 in the test on MDA-MB-231, in the test with NCI-H23, in the test with OVCAR-8, in the test with RPMI-8226, with SF-268 and with SK-MEL-28 was > 100 µM (inactive) each time. Besides, the GI50 in the test on SK-MEL-2 was > 100 µM (inactive); with SK-MEL-5, > 100 µM (inactive); in the test with SNB-75 it was > 100 µM (inactive); in the test with SR it was 58.1 µM (inactive); with TK-10, > 100 µM (inactive).
In the case of `COc1ccc(C2SC(=N)Nc3c2c(C)nn3C(=O)Cc2ccccc2)cc1` (stereo unspecified), the GI50 in the test on A498, with BT-549, in the test on COLO 205, in the test on HT-29, with IGROV-1 and in the test on KM12 was > 100 µM (inactive) in each case. The GI50 in the test on LOX IMVI, with MDA-MB-231, with NCI-H23, with OVCAR-8, in the test on RPMI-8226 and in the test with SF-268 was > 100 µM (inactive) in each case. Also, the GI50 was > 100 µM (inactive) in the test with SF-539; > 100 µM (inactive) in the test with SK-MEL-28; > 100 µM (inactive) with SK-MEL-5; 10.9 µM (inactive) with SNB-75; > 100 µM (inactive) with SR; > 100 µM (inactive) in the test with TK-10.
For the molecule `Cc1ccc(C2(c3ccc(C)c(O)c3C)CCN(C)CC2)c(C)c1O`, the GI50 with A498 is 41.7 µM (inactive); with BT-549 it was > 100 µM (inactive); in the test on HT-29, 45.1 µM (inactive); in the test with IGROV-1 it was > 100 µM (inactive); in the test with KM12 it was 46.5 µM (inactive); with LOX IMVI it was 34.8 µM (inactive). Moreover, the GI50 with MDA-MB-231 is 34.8 µM (inactive); in the test on NCI-H23, > 100 µM (inactive); in the test with OVCAR-8, > 100 µM (inactive); in the test with RPMI-8226 it was > 100 µM (inactive); in the test with SF-268 it was > 100 µM (inactive); with SK-MEL-28 it was 30.4 µM (inactive). The GI50 in the test with SK-MEL-2 was 26.9 µM (inactive); with SK-MEL-5, > 100 µM (inactive); in the test with SNB-75, > 100 µM (inactive); in the test with SR it was 49.8 µM (inactive); with TK-10, 19.9 µM (inactive).
With `N#CC1(C#N)C(C#N)(C#N)C1(C#N)C(N)=O`, the GI50 with A498, in the test with BT-549, in the test on COLO 205, with HT-29, in the test on IGROV-1 and in the test with KM12 was > 100 µM (inactive) throughout. Also, the GI50 in the test on LOX IMVI, with MDA-MB-231, in the test with NCI-H23, in the test on OVCAR-8, with RPMI-8226 and in the test with SF-268 was > 100 µM (inactive) in each case. In addition, the GI50 in the test with SK-MEL-28, in the test on SK-MEL-2, with SK-MEL-5, with SR and in the test with TK-10 was > 100 µM (inactive) each time.
Turning to `COc1ccc2c(c1OC)C(Br)CCC(Br)(Br)C2=O` (stereo unspecified), the GI50 was 16 µM (inactive) in the test on A498; 7.87 µM (inactive) in the test on BT-549; 3.02 µM (inactive) in the test on COLO 205; 4.43 µM (inactive) with HT-29; 5.83 µM (inactive) with IGROV-1; 16.3 µM (inactive) in the test on KM12. For the same molecule, the GI50 is 2.93 µM (inactive) with LOX IMVI; 16.3 µM (inactive) in the test with MDA-MB-231; 7.21 µM (inactive) with NCI-H23; 7.45 µM (inactive) in the test on OVCAR-8; 4.81 µM (inactive) with RPMI-8226; 14 µM (inactive) in the test on SF-268. Also, the GI50 is 3.17 µM (inactive) with SF-539; 13.1 µM (inactive) in the test with SK-MEL-28; 14.4 µM (inactive) in the test with SK-MEL-2; 2.47 µM (inactive) with SK-MEL-5; 1.27 µM (inactive) in the test on SR; 6.79 µM (inactive) in the test with TK-10.
Turning to `CC1=N[C@](C)(C2CC3C=CC2C3=O)COC1=O` (stereo partly specified), the GI50 in the test with A498, with BT-549, in the test on COLO 205, in the test with HT-29, in the test with IGROV-1 and in the test with KM12 was > 100 µM (inactive) each time. Also, the GI50 with MDA-MB-231, with NCI-H23, in the test with OVCAR-8, in the test on SF-268, with SF-539 and in the test on SK-MEL-28 was > 100 µM (inactive) each time. Moreover, the GI50 in the test with SK-MEL-5, in the test with SNB-75, in the test with SR and in the test on TK-10 was > 100 µM (inactive) in each case.
`CC(Cc1ccc(O)cc1)NCC(O)c1ccc(O)c(O)c1` (stereo unspecified): the GI50 with A498, in the test on BT-549, with HT-29, in the test on IGROV-1, with KM12 and with LOX IMVI was > 100 µM (inactive) each time. The GI50 is 3.35 µM (inactive) in the test with MDA-MB-231; > 100 µM (inactive) with NCI-H23; > 100 µM (inactive) with OVCAR-8; > 100 µM (inactive) in the test with RPMI-8226; > 100 µM (inactive) in the test with SF-268; > 100 µM (inactive) with SF-539. Further, the GI50 in the test with SK-MEL-28 is > 100 µM (inactive); with SK-MEL-2, > 100 µM (inactive); in the test with SK-MEL-5 it was > 100 µM (inactive); in the test with SNB-75 it was > 100 µM (inactive); with SR, 88.3 µM (inactive); in the test with TK-10 it was > 100 µM (inactive).
